Measured values taken from patent publication US20050043300A1, “Piperazine derivatives” (priority 2003, published 2005).

Tested on: HIV-1 fusion
Experiment: gp160 induced cell-cell fusion assay (HeLa P4 / CHO-Tat10 cells, β-galactosidase reporter)
Type: cell-based
Details: Human immunodeficiency virus 1, HeLaP4, read-out: IC50 against HIV-1 fusion
Description: The gp160 induced cell-cell fusion assay uses a HeLa P4 cell line and a CHO-Tat10 cell line.
The HeLa P4 cell line expresses CCR5 and CD4 and has been transfected with HIV-1 LTR-β-Galactosidase. The media for this cell line is Dulbecco modified eagle's medium (D-MEM) (without L-glutamine) containing 10% foetal calf serum (FCS), 2 mM L-glutamine penicillin/streptomycin (Pen/Strep; 100 U/mL penicillin+[…] streptomycin), and 1 μg/ml puromycin.
The CHO cell line is a Tat (transcriptional trans activator)-expressing clone from a CHO JRR17.1 cell line that has been transfected with pTat puro plasmid. The media for this cell line is rich medium for mammalian cell culture originally developed at Roswell Park Memorial Institute RPMI1640 (without L-glutamine) containing 10% FCS, 2 mM L-glutamine, 0.5 mg/ml Hygromycin B and 12 μg/ml puromycin. The CHO JRR17.1 line expresses gp160 (JRFL) and is a clone that has been selected for its ability to fuse with a CCR5/CD4 expressing cell line.
Upon cell fusion, Tat present in the CHO cell is able to transactivate the HIV-1 long terminal repeat (LTR) present in the HeLa cell leading to the expression of the β-Galactosidase enzyme. This expression is then measured using a Fluor Ace™ β-Galactosidase reporter assay kit (Bio-Rad cat no. 170-3150). This kit is a quantitative fluorescent assay that determines the level of expression of β-galactosidase using 4-methylumbelliferul-galactopyranoside (MUG) as substrate. β-Galactosidase hydrolyses the fluorogenic substrate resulting in release of the fluorescent molecule 4-methylumbelliferone (4MU). Fluorescence of 4-methylumbelliferone is then measured on a fluorometer using an excitation wavelength of 360 nm and emission wavelength of 460 nm.
Compounds that inhibit fusion will give rise to a reduced signal and, following solubilisation in an appropriate solvent and dilution in culture medium, a dose-response curve for each compound can be used to calculate IC50 values.

| Compound | IC50 [nM] |
| --- | --- |
| Cc1n[nH]c2cccc(O[C@@H](C)C(=O)N3CCN(C(=O)c4ccccc4)C[C@H]3C)c12 [Example 12] | 15 |
| CC(Oc1cccc2ccccc12)C(=O)N1CCN(C(=O)c2ccccc2)C[C@H]1C (stereo partly drawn) [Example 29] | 134 |
| CC(Oc1ccccc1C(N)=O)C(=O)N1CCN(C(=O)c2ccccc2)C[C@H]1C (stereo partly drawn) [Example 44] | 825 |

Target: interaction of gp120 with CD4 (Human immunodeficiency virus type 1 group M subtype B, UniProt P04578)
Experiment: gp120/soluble CD4 enzyme linked immunosorbent assay (ELISA)
Type: binding
Details: soluble CD4 conjugated to horseradish peroxidase, absorbance at 492 nm, read-out: IC50, inhibition of interaction of gp120 with soluble CD4
Description: Maxisorp plates (Nunc) are coated with 2 μg/well of anti-gp120 antibody (D7324). 100 μl of gp120 (dilution pre-determined by titration) is added to each well and incubated for 90 minutes at room temperature. The sample is removed and the wells are washed with PBS (phosphate buffered saline)+0.01% TWEEN® (polyethylene glycol sorbitan monolaurate). 50 μl/well of compound is added followed by 50 μl (0.1 μg) of soluble CD4 conjugated to horseradish peroxidase (Autogen Bioclear). The plate is incubated for 90 minutes at room temperature before the wells are washed again. The substrate OPD (o-phenylenediamine, Sigma) is added at a concentration of 0.5 mg/ml and the plate incubated in the dark at room temperature for 3 minutes before 3M HCl is added to stop the reaction. Compounds that inhibit the interaction of gp120 with soluble CD4 will give rise to a reduced absorbance at 492 nm.

| Compound | IC50 [nM] |
| --- | --- |
| C[C@H](Oc1cccc2ncccc12)C(=O)N1CCN(C(=O)c2ccccc2)C[C@H]1C [Example 1, (2S)-1-[(2R)-4-Benzoyl-2-methyl-piperazin-1-yl]-2-(quinolin-5-yloxy)-prooan-1-one] | 920 |
| CNC(=O)c1ccc(O[C@@H](C)C(=O)N2CCN(C(=O)c3ccccc3)C[C@H]2C)c(OC)c1 [Example 11] | 1000 |
| Cc1n[nH]c2cccc(O[C@@H](C)C(=O)N3CCN(C(=O)c4ccccc4)C[C@H]3C)c12 [Example 12] | 750 |
